# What was measured:
# [1] = Rucaparib steady-state trough plasma concentration (Cmin); assay type: in vivo, human; details: rucaparib 600 mg BID from day 5
# Text: This was a 2-part, phase 1, open-label, 2-arm DDI study in patients with advanced solid tumors. In Part 1 of the study, patients were screened for eligibility from day − 28 to − 2 and visited the study site from day − 1 to 23 (Fig. 1). […] To check steady-state plasma concentrations for rucaparib, a blood sample was collected prior to the dosing of rucaparib on days 5, 9, 11, 15, and 19–23.
# Other PK parameters, calculated for the probe drugs, included half-life (t1/2), tmax, apparent total clearance of drug after oral administration (CL/F), and apparent volume of distribution during terminal phase (VZ/F). The PK parameter calculated for rucaparib at steady state was trough plasma concentration (Cmin). PK parameters were calculated by noncompartmental analysis using Phoenix WinNonlin, version 8.1 (Certara, Princeton, NJ).
# [2] = Safety: TEAEs, Arm A (rucaparib + rosuvastatin); assay type: in vivo, human
# Method: (§1) Safety was assessed separately during the 3 treatment periods: before rucaparib dosing (day 1 to 5), rucaparib dosing alone (day 6 to 18), and rucaparib with and after probe drug (day 19 to 23). Safety and tolerability assessments were made based on adverse events (AEs), clinical laboratory results, vital signs, 12-lead electrocardiogram (ECG) measurements, body weight, physical examination, concomitant medication/procedures, and ECOG performance status. AEs were classified according to the Medical Dictionary for Regulatory Activities (MedDRA) classification system version 22.1 [17] and graded according to the Common Terminology Criteria for Adverse Events (CTCAE) version 4.03 [18].
# [3] = Safety: TEAEs, Arm B (rucaparib + oral contraceptives)
# Method: as §1
# [4] = system: breast cancer resistance protein (BCRP); parameters: method as in PMID 32129697; details: read-out: 50% inhibitory concentration (IC50) for BCRP; transfected cells; cited from earlier work
# CYP3As = system: CYP3As; parameters: method as in PMID 32129697; details: human liver microsomes, reversible inhibition; cited from earlier work
# CYP3A4 = system: CYP3A4; parameters: method as in PMID 32129697; details: human hepatocytes; cited from earlier work
# [5] = parameters: method as in PMID 29799676; details: all dosages 40–500 mg QD or 240–840 mg BID; cited from earlier work
# CYP3A = system: CYP3A; parameters: method as in PMID 30427584; details: patients with an advanced solid tumor; cited from earlier work
structure (smiles),measurement,setting,value
CNCc1ccc(-c2[nH]c3cc(F)cc4c3c2CCNC4=O)cc1 [rucaparib],days of continuous rucaparib dosing to steady state,[1],4 days
same,Abdominal distension,[2]; maximum severity 1,1 (5.9) n (%)
same,Abdominal pain,[2]; maximum severity 1,1 (5.9) n (%)
same,Blood creatinine increased,[2]; maximum severity 1,1 (5.9) n (%)
same,Diarrhea,[2]; maximum severity 1,2 (11.8) n (%)
same,Dyspepsia,[2]; maximum severity 1,1 (5.9) n (%)
same,Electrocardiogram QT prolonged,[2]; maximum severity 1,1 (5.9) n (%)
same,Gastrointestinal disorders,[2]; maximum severity 1,3 (17.6) n (%)
same,General disorders and administration site conditions,[2]; maximum severity 1,1 (5.9) n (%)
same,Infections and infestations,[2]; maximum severity 1,1 (5.9) n (%)
same,Investigations,[2]; maximum severity 1,2 (11.8) n (%)
same,Nasopharyngitis,[2]; maximum severity 1,1 (5.9) n (%)
same,Peripheral swelling,[2]; maximum severity 1,1 (5.9) n (%)
same,Reproductive system and breast disorders,[2]; maximum severity 1,0 n (%)
same,Total patients with events,[2]; maximum severity 1,5 (29.4) n (%)
same,Vaginal hemorrhage,[2]; maximum severity 1,0 n (%)
same,Vomiting,[2]; maximum severity 1,0 n (%)
same,Abdominal pain,[2]; maximum severity 2,1 (5.9) n (%)
same,Abdominal pain upper,[2]; maximum severity 2,1 (5.9) n (%)
same,Body temperature increased,[2]; maximum severity 2,0 n (%)
same,Cardiac disorders,[2]; maximum severity 2,1 (5.9) n (%)
same,Diarrhea,[2]; maximum severity 2,1 (5.9) n (%)
same,Dyspepsia,[2]; maximum severity 2,0 n (%)
same,Electrocardiogram QT prolonged,[2]; maximum severity 2,0 n (%)
same,Gastrointestinal disorders,[2]; maximum severity 2,3 (17.6) n (%)
same,General disorders and administration site conditions,[2]; maximum severity 2,2 (11.8) n (%)
same,Infections and infestations,[2]; maximum severity 2,1 (5.9) n (%)
same,Investigations,[2]; maximum severity 2,0 n (%)
same,Noncardiac chest pain,[2]; maximum severity 2,1 (5.9) n (%)
same,Peripheral swelling,[2]; maximum severity 2,1 (5.9) n (%)
same,Sinus tachycardia,[2]; maximum severity 2,1 (5.9) n (%)
same,Total patients with events,[2]; maximum severity 2,5 (29.4) n (%)
same,Urinary tract infection,[2]; maximum severity 2,1 (5.9) n (%)
same,Vomiting,[2]; maximum severity 2,1 (5.9) n (%)
same,Deep vein thrombosis,[2]; maximum severity 3,1 (5.9) n (%)
same,Total patients with events,[2]; maximum severity 3,1 (5.9) n (%)
same,Vascular disorders,[2]; maximum severity 3,1 (5.9) n (%)
same,Pulmonary embolism,[2]; maximum severity 4,1 (5.9) n (%)
same,"Respiratory, thoracic, and mediastinal disorders",[2]; maximum severity 4,1 (5.9) n (%)
same,Total patients with events,[2]; maximum severity 4,1 (5.9) n (%)
same,TEAEs considered related to rucaparib by the investigator,"[2]; rucaparib alone day 5 to 19, of 10 patients with TEAE",3
same,Pharyngitis bacterial,"[3]; Arm B, maximum severity 1",1 (5.6) n (%)
same,patients who experienced at least 1 TEAE,"[3]; female, human, in vivo",50.0%
same,patients with TEAEs considered related to rucaparib,"[3]; female, human, in vivo",7 patients
same,Abdominal discomfort,"[3]; human, in vivo",1 (5.6) n (%)
same,Abdominal pain,"[3]; human, in vivo",1 (5.6) n (%)
same,Accident,"[3]; human, in vivo",1 (5.6) n (%)
same,Acute kidney injury,"[3]; human, in vivo",1 (5.6) n (%)
same,Apathy,"[3]; human, in vivo",1 (5.6) n (%)
same,Arthropod bite,"[3]; human, in vivo",1 (5.6) n (%)
same,Ascites,"[3]; human, in vivo",1 (5.6) n (%)
same,Aspartate aminotransferase increased,"[3]; human, in vivo",1 (5.6) n (%)
same,Cerebrovascular accident,"[3]; human, in vivo",0 n (%)
same,Diarrhea,"[3]; human, in vivo",0 n (%)
same,Dysgeusia,"[3]; human, in vivo",2 (11.1) n (%)
same,Erythema,"[3]; human, in vivo",0 n (%)
same,General disorders and administration site conditions,"[3]; human, in vivo",1 (5.6) n (%)
same,Headache,"[3]; human, in vivo",1 (5.6) n (%)
same,Infections and infestations,"[3]; human, in vivo",1 (5.6) n (%)
same,"Injury, poisoning, and procedural complications","[3]; human, in vivo",1 (5.6) n (%)
same,Musculoskeletal and connective tissue disorders,"[3]; human, in vivo",1 (5.6) n (%)
same,Musculoskeletal pain,"[3]; human, in vivo",1 (5.6) n (%)
same,Nausea,"[3]; human, in vivo",1 (5.6) n (%)
same,Onycholysis,"[3]; human, in vivo",1 (5.6) n (%)
same,Peripheral swelling,"[3]; human, in vivo",1 (5.6) n (%)
same,Psychiatric disorders,"[3]; human, in vivo",1 (5.6) n (%)
same,Renal and urinary disorders,"[3]; human, in vivo",1 (5.6) n (%)
same,Skin and subcutaneous tissue disorders,"[3]; human, in vivo",1 (5.6) n (%)
same,Skin hemorrhage,"[3]; human, in vivo",1 (5.6) n (%)
same,Somnolence,"[3]; human, in vivo",1 (5.6) n (%)
same,Taste disorder,"[3]; human, in vivo",1 (5.6) n (%)
same,Thrombocytopenia,"[3]; human, in vivo",0 n (%)
same,IC50,[4],55 µM
same,IC50,CYP3As,17.2 to 22.9 µM
same,CYP3A4 mRNA expression,CYP3A4,down-regulated
same,CYP3A activities,CYP3A4,reduced
same,steady state of plasma rucaparib PK achieved by day,[5],≤ 8 days
same,inhibition of CYP3A at steady state,CYP3A,weakly inhibited
